Data: patent US12521438B2, “SMARCA degraders and uses thereof” (Kymera Therapeutics, Inc., priority 2019, dated 2026)

Experiments:
SMARCA2 = SMARCA2 (Homo sapiens, UniProt P51531); assay: MSD SMARCA2 degradation in A549 cell line; type: cell-based; set-up: endogenous in cells; host or cells: A549; settings: A549 cells, 24 hours; for DC50: read-out: SMARCA2 MSD A549 degradation 24h: Average external-Abs DC50
Method: Example 9. MSD SMARCA2 Degradation in A549 Cell Line
Cells were seeded into 96-well plates (A549 cells: 2×10^4 cells/well/100 ul media) abd incubated overnight. The next day, 200 nl compound were added into the intermediate plate with Echo (Labcyte 550) from source plate containing a 3-fold serial dilution from top concentration of 1 mM. The culture medium was changed with 80 ul of fresh medium and 80 ul of 2× compound solution was added into the well to make a final concentration of 1000 nM, 333.3 nM, 111.1 nM, 37.04 nM, 12.35 nM, 4.115 nM, 1.372 nM, 0.457 nM, 0.152 nM and 0 nM (DMSO). The wells were mixed and then incubated for 24 hours. The media was aspirated from the cultures and 60 ul pre-chilled PIPA lysis buffer (Boston BioProducts BP-115D) with protease/phosphatase inhibitor (Roche 05892791001/Roche 04906837001) was added into the well to lyze the cells for 20 minutes at 4° C. The MSD plate (L15XA) was coated with 40 ul cell lysate and incubated at 4° C. overnight. The next day, the plate was washed three times with TBST (CST #9997S), 150 ul/well. The MSD plates was blocked with 150 ul blocking buffer per well and shaked for 1 hr at RT, 600 rpm. The blocking buffer was 3% Blocker A (MSD, R93BA-4) in TBST. The MSD plate was washed three times with 150 ul/well of TBST and 25 ul/well of detection antibody (Rabbit anti-SMARCA2/BRM antibody, 100 μg/ml, ab223735) was added at final concentration of 1 ug/ml diluted in 1% Blocking buffer and shaken for 1 hour at RT, 600 rpm. The MSD plate was washed three times with 150 ul/well of TBST and 25 ul/well of SULFO-TAG anti-rabbit antibody (MSD, R32AB-1) was added at final concentration of 1 ug/ml diluted in 1% Blocking buffer and shaken for 1 hour at RT, 600 rpm. The MSD plate was washed three times with 150 ul/well of TBST and 150 ul/well of 2×MSD reading buffer diluted from 4× (MSD, R92TC-2) with water was added. Lastly, the MSD instrument was read.

SMARCA4 = molecular target: T1, SMARCA4 (Homo sapiens, UniProt P51532); assay: SMARCA4 Western blot MV4-11 degradation; type: cell-based; settings: MV4-11 cells, 24 hours; for Dmax: read-out: SMARCA4 WB MV411 degradation 24h: Average Dmax %; for DC50: read-out: SMARCA4 WB MV411 degradation 24h: Average external-Abs DC50
T1 construct: endogenous in cells; host or cells: MV4-11
T1 sequence (P51532 whole entry): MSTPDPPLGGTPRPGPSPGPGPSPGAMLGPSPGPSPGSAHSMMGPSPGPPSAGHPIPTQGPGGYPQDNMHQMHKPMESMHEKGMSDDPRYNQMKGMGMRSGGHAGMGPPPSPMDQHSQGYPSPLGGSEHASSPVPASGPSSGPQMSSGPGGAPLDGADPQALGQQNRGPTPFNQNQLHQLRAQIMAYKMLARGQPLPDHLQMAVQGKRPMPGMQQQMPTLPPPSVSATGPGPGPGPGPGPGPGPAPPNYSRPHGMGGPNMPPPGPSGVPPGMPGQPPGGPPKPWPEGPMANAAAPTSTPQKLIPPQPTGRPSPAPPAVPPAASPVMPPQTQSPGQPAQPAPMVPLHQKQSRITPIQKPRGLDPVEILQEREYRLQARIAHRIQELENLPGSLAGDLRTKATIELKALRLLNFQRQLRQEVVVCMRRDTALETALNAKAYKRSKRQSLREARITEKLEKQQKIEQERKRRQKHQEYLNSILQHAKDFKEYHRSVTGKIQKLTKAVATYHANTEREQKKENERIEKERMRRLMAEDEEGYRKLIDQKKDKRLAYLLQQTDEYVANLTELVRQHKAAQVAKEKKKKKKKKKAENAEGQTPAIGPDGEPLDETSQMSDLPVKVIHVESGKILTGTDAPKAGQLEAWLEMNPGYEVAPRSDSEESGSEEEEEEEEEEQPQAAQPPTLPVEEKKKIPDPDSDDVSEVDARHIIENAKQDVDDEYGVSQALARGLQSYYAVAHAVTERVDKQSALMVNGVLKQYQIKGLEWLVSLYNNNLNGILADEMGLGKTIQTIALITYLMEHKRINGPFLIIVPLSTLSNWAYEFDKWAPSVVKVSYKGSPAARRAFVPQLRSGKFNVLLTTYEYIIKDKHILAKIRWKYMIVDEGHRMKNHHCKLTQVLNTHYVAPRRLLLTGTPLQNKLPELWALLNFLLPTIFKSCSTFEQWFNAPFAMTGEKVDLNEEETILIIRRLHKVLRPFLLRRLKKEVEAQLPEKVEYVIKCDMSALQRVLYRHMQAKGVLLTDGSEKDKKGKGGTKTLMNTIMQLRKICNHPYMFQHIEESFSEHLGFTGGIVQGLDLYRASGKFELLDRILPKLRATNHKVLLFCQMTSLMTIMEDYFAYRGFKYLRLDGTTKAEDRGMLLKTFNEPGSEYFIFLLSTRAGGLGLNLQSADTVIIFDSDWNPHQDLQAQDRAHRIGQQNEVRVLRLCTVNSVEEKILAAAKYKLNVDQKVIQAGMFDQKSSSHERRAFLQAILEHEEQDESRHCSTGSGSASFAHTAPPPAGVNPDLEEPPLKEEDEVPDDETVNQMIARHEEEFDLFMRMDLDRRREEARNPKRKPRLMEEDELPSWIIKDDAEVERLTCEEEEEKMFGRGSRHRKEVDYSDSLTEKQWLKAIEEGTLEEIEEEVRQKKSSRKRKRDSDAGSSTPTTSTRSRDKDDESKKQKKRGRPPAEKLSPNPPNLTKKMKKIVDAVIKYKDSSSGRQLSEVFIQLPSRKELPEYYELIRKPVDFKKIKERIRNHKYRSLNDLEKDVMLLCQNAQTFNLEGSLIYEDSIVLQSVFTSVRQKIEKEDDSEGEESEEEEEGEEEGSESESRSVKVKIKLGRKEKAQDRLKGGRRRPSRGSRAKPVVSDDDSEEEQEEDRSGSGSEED
Method: Example 10. SMARCA2 and SMARCA 4 Western Blot MV4-11 Degradation
Cells were seeded into 6-well plates (MV4-11: 4×10^6 cells/well/1 ml) and 1 ml of 2× compound solution was added into the well to make the final concentration and the plates were mixed well and incubated for 24 hours (No cytotoxicity was observed). The cell were collected with media and spun at 3000 rpm for 5 minutes. The supernatant was aspirated and the well and the cells were washed with cold PBS once and combined for centrifugation again; the supernatant aspirated again. 200 ul pre-chilled RIPAlysis buffer (Boston BioProducts BP-115D) with protease/phosphatase inhibitor (Roche 05892791001/Roche 04906837001) was directly added into the tube to lyze the cells for 20 minutes on ice. The cell lysate were collected into EP tubes and spun at 13000 rpm for 20 minutes and 72 ul supernatant was transferred to a fresh EP tube containing 18 ul of 5× loading buffer (Beyotime Bio P0015) to make the loading samples. The samples were heated to 100° C. for 10 minutes and cooled to RT and microcentrifuged. 20 ul of samples were loaded onto SDS-PAGE gel (Novex, WG1402BOX) and the gel was run at 80 V for 20 minutes and 120 V for 1.5 hours. The samples were electrotransfer to a NC membrane using wet-transfer method with 250 mA for 2.5 hours. The membrane was blocked with LICOR blocking buffer (LI-COR, 927-50000) for 1 hour. The membrane was washed three times with TBST (CST #9997S), 5 minutes each. Incubation was performed with primary antibody prepared in blocking buffer with 0.1% Tween-20 (Solarbio, P8220) at 4° C. overnight (Anti-SMARCA2/BRM antibody (ab15597) 1:500; Anti-BRG1 antibody [EPR3912] (ab108318) 1:1000; Rabbit anti-Baf180 antibody [EPR15860] (Abcam,ab196022) 1:1000; mouse anti-beta-Actin (8H10D10) (CST #3700) 1:10000). The membrane was washed three times with TBST, 5 minutes each. Incubation with secondary antibody was performed for 1 hour at RT (anti-rabbit IgG (Licor, 926-32211) 1:5000; anti-mouse IgG (LI-COR, 926-68070) 1:5000). The membrane was washed three times with 5 minutes each and lastly the LiCOR was read.

Sequence of SMARCA2 (P51531 whole entry): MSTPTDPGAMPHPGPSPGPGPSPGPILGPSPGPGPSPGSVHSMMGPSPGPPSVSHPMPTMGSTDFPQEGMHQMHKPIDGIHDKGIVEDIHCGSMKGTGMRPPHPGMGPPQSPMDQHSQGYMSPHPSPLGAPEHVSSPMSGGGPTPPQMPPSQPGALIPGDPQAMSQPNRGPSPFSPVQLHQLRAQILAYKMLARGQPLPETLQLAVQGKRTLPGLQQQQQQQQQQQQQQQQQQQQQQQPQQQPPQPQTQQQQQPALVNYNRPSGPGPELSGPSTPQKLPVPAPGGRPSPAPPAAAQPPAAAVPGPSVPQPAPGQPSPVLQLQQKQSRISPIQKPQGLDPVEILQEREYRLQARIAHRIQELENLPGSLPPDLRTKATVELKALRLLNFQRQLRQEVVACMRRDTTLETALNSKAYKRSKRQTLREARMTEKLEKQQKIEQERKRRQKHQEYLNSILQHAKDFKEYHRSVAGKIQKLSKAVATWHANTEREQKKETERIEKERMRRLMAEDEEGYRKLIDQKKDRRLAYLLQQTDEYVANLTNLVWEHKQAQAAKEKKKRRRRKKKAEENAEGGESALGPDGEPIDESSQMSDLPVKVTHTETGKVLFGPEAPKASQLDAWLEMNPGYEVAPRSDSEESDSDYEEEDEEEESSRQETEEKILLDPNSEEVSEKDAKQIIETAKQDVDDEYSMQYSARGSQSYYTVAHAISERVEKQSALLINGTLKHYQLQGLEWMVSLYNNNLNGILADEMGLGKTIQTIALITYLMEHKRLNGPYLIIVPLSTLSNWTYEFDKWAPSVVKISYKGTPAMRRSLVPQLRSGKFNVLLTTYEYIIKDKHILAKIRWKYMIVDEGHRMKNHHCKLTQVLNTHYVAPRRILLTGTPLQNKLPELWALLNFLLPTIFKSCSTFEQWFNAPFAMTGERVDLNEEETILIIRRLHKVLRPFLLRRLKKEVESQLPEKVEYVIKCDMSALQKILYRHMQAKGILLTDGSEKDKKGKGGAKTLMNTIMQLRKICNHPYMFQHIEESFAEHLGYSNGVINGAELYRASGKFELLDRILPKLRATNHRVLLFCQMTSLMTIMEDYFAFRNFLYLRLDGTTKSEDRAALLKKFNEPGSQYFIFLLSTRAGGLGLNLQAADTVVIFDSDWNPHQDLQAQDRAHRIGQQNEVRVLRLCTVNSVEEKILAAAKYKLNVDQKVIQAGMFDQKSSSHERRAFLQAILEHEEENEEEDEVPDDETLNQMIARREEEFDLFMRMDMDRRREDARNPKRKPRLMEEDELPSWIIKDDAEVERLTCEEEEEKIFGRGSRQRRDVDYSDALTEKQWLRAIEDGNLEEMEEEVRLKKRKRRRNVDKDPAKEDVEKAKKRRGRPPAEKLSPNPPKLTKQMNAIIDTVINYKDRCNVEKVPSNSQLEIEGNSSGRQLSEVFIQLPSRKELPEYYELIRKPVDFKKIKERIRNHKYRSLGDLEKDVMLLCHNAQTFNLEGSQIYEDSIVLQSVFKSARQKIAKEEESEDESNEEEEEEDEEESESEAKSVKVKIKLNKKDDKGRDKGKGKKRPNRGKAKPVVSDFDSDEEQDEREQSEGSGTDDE

Compound | Dmax (SMARCA2) [%] | DC50 (SMARCA2) [nM] | Dmax (SMARCA4) [%] | DC50 (SMARCA4) [nM]
Cc1ncsc1-c1ccc(CNC(=O)[C@@H]2C[C@@H](O)CN2C(=O)[C@@H](NC(=O)CN(C)Cc2cnc(N3CCC(c4c[nH]c5nnc(-c6ccccc6O)cc45)CC3)nc2)C(C)(C)C)cc1 [I-50] | < 50 | > 1000 | < 50 | > 1000
Cc1ncsc1-c1ccc(CNC(=O)[C@@H]2C[C@@H](O)CN2C(=O)[C@@H](NC(=O)CCCN(C)Cc2cnc(N3CCC(c4c[nH]c5nnc(-c6ccccc6O)cc45)CC3)nc2)C(C)(C)C)cc1 [I-51] | < 50 | > 1000 | < 50 | > 1000
Cc1ncsc1-c1ccc(CNC(=O)[C@@H]2C[C@@H](O)CN2C(=O)[C@@H](NC(=O)CCCCCN(C)Cc2cnc(N3CCC(c4c[nH]c5nnc(-c6ccccc6O)cc45)CC3)nc2)C(C)(C)C)cc1 [I-52, (2S,4R)-4-hydroxy-1-((S)-2-(6-(((2-(4-(3-(2-hydroxyphenyl)-7H-pyrrolo[2,3-c]pyridazin-5-yl)piperidin-1-yl)pyrimidin-5-yl)methyl)(methyl)amino)hexanamido)-3,3-dimethylbutanoyl)-N-(4-(4-methylthiazol-5-yl)benzyl)pyrrolidine-2-carboxamide] | < 50 | > 1000 | 50 to 70 | > 1000
Cc1ncsc1-c1ccc(CNC(=O)[C@@H]2C[C@@H](O)CN2C(=O)[C@@H](NC(=O)CN2CCC(c3cc(N4CCC(c5c[nH]c6nnc(-c7ccccc7O)cc56)CC4)ncn3)CC2)C(C)(C)C)cc1 [I-54, (2S,4R)-4-hydroxy-1-((S)-2-(2-(4-(6-(4-(3-(2-hydroxyphenyl)-7H-pyrrolo[2,3-c]pyridazin-5-yl)piperidin-1-yl)pyrimidin-4-yl)piperidin-1-yl)acetamido)-3,3-dimethylbutanoyl)-N-(4-(4-methylthiazol-5-yl)benzyl)pyrrolidine-2-carboxamide] | < 50 | > 1000 | > 90 | > 1000
NCC#Cc1cnc(N2CCC(c3c[nH]c4nnc(-c5ccccc5O)cc34)CC2)nc1 [I-55, 2-(5-(1-(5-(3-aminoprop-1-yn-1-yl)pyrimidin-2-yl)piperidin-4-yl)-7H-pyrrolo[2,3-c]pyridazin-3-yl)phenol] | < 50 | > 1000 | > 90 | > 1000

More lines, now with the values ahead:

Dmax (SMARCA2) [%] | DC50 (SMARCA2) [nM] | Dmax (SMARCA4) [%] | DC50 (SMARCA4) [nM] | Compound
< 50 | > 1000 |  |  | CN(CCCc1cnc(N2CCC(c3c[nH]c4nnc(-c5ccccc5O)cc34)CC2)nc1)CCCc1ccc2c(c1)n(C)c(=O)n2C1CCC(=O)NC1=O (centres unmarked) [I-2]
< 50 | > 1000 |  |  | CN(CC#Cc1cnc(N2CCC(c3c[nH]c4nnc(-c5ccccc5O)cc34)CC2)nc1)CCCc1ccc2c(c1)n(C)c(=O)n2C1CCC(=O)NC1=O (centres unmarked) [I-3]
70 to 90 | 501 to 1000 | > 90 | < 100 | Cc1ncsc1-c1ccc(CNC(=O)[C@@H]2C[C@@H](O)CN2C(=O)[C@@H](NC(=O)[C@H]2CC[C@@H](c3cnc(N4CCC(c5c[nH]c6nnc(-c7ccccc7O)cc56)CC4)nc3)CC2)C(C)(C)C)cc1 [I-45, (2S,4R)-4-hydroxy-1-((S)-2-((1s,4R)-4-(2-(4-(3-(2-hydroxyphenyl)-7H-pyrrolo[2,3-c]pyridazin-5-yl)piperidin-1-yl)pyrimidin-5-yl)cyclohexanecarboxamido)-3,3-dimethylbutanoyl)-N-(4-(4-methylthiazol-5-yl)benzyl)pyrrolidine-2-carboxamide]
< 50 | > 1000 | 70 to 90 | > 1000 | Cc1ncsc1-c1ccc(CNC(=O)[C@@H]2C[C@@H](O)CN2C(=O)[C@@H](NC(=O)C2(F)CC2)C(C)(C)C)c(OCCN2CCC(c3c[nH]c4nnc(-c5ccccc5O)cc34)CC2)c1 [I-47, (2S,4R)-1-((S)-2-(1-fluorocyclopropanecarboxamido)-3,3-dimethylbutanoyl)-4-hydroxy-N-(2-(2-(4-(3-(2-hydroxyphenyl)-7H-pyrrolo[2,3-c]pyridazin-5-yl)piperidin-1-yl)ethoxy)-4-(4-methylthiazol-5-yl)benzyl)pyrrolidine-2-carboxamide]
< 50 | > 1000 | < 50 | 501 to 1000 | Cc1ncsc1-c1ccc(CNC(=O)[C@@H]2C[C@@H](O)CN2C(=O)[C@@H](NC(=O)C2(F)CC2)C(C)(C)C)c(OCCCCCCN2CCC(c3c[nH]c4nnc(-c5ccccc5O)cc34)CC2)c1 [I-48]
< 50 | > 1000 | 70 to 90 | > 1000 | Cc1ncsc1-c1ccc(CNC(=O)[C@@H]2C[C@@H](O)CN2C(=O)[C@@H](NC(=O)C2(F)CC2)C(C)(C)C)c(OCCCCCCCCN2CCC(c3c[nH]c4nnc(-c5ccccc5O)cc34)CC2)c1 [I-49]
70 to 90 | 501 to 1000 | 70 to 90 | < 100 | Cc1ncsc1-c1ccc(CNC(=O)[C@@H]2C[C@@H](O)CN2C(=O)[C@@H](NC(=O)CN2CCC(c3cnc(N4CCC(c5c[nH]c6nnc(-c7ccccc7O)cc56)CC4)nc3)CC2)C(C)(C)C)cc1 [I-53]
